Test in all cases: NCI-60 cell line screen, 48 h
Assay [1] deals with CAKI-1 renal.
Assay [2] relates to NCI-H23 lung.
Assay [3] concerns SF-295 CNS.
For assay [4], the system named is NCI-H226 lung.
The subject of assay [5] is HT29 colon.
Assay [6] has as its system MDA-MB-435.
Assay [7] deals with SW-620 colon.
In assay [8] the test system is RPMI-8226 leukemia.
In assay [9] the test system is COLO 205 colon.
For assay [10], the system named is UACC-257 melanoma.

The structures appear in SMILES notation.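 In this assay, cells in 96-well plates receive the compound at five concentrations for 48 hours. Endpoints are linearly interpolated between the surrounding concentrations. GI50: concentration for 50% inhibition of growth. The concentration for full growth arrest is given as TGI.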

For `O=C1/C=C/[C@@H](O)[C@@H]2C[C@@H](O)C[C@H]2/C=C/CCC[C@H](CCc2ccc(NC(=S)Nc3ccc4c(c3)C(=O)OC43c4ccc(O)cc4Oc4cc(O)ccc43)cc2)O1`, the GI50 in assay [1] is 1.65 µM; in [2], 0.439 µM; in assay [3], 0.486 µM; in [4], 0.287 µM; in assay [5], 0.365 µM; in assay [6] it was 0.377 µM. Besides, the GI50 is 0.337 µM in assay [7], 0.339 µM in assay [8], 0.208 µM in assay [9] and 0.547 µM in assay [10]. Also, the TGI was above 100 µM in [1]; above 74 µM in assay [2]; above 100 µM in assay [3]; 0.783 µM in assay [4]; 3.61 µM in assay [5]; above 100 µM in assay [6]. The TGI in assay [8] was 2.39 µM; in assay [9], 0.384 µM; in assay [10], above 75.5 µM.

For the compound `CC[C@H](C)C(=O)O[C@H]1CCC=C2C=C[C@H](C)[C@H](CC[C@@H]3C[C@@H](O)CC(=O)O3)[C@H]21`, the GI50 in [1] was 2.6 µM; in assay [2] it was 8.37 µM; in assay [3], 1.66 µM; in assay [4], 6.82 µM; in assay [5], 28 µM; in assay [6], 7.51 µM. The GI50 is 11.8 µM in assay [7], 13.1 µM in [8] and 73.3 µM in assay [10]. In addition, the TGI was 11.2 µM in assay [1]; above 100 µM in [2]; 4.32 µM in assay [3]; above 82.2 µM in assay [4]; above 100 µM in [5]; above 100 µM in [6]. The TGI in [7] was above 100 µM; in [8], above 75.9 µM; in assay [9] it was 82 µM; in assay [10] it was above 100 µM.

In the case of `CCc1c2c(nc3ccc(OC(=O)OCc4ccc(B5OC(C)(C)C(C)(C)O5)cc4)cc13)-c1cc3c(c(=O)n1C2)COC(=O)[C@]3(O)CC`, the GI50 in [1] was below 0.01 µM; in assay [2] it was below 0.0107 µM; in assay [3], below 0.01 µM; in assay [4], 0.011 µM; in assay [5] it was 0.0436 µM; in assay [6] it was 0.0523 µM. Further, the GI50 in assay [7] was below 0.0127 µM; in assay [8], 0.224 µM; in assay [9], 0.0804 µM; in assay [10] it was 0.116 µM. Moreover, the TGI is 0.315 µM in assay [1]; 0.437 µM in assay [2]; 1.48 µM in assay [3]; 0.157 µM in [4]; above 100 µM in assay [5]; 1.53 µM in assay [6]. Moreover, the TGI in assay [9] is 24.5 µM; in [10], 3.22 µM.

Take `COc1ccc(C(=O)/C=C/c2c(C(F)(F)F)nc3ccccn23)cc1OC`: the GI50 is 1.71 µM in assay [1]; 1.66 µM in [2]; 3.15 µM in assay [3]; 3.97 µM in assay [4]; 0.786 µM in assay [5]; 1.15 µM in assay [6]. For the same compound, the GI50 in assay [7] was 0.527 µM; in assay [8] it was 0.362 µM; in [9], 1.86 µM; in [10], 2.43 µM. Also, the TGI was above 24.5 µM in assay [1]; above 26.9 µM in [2]; 42.5 µM in assay [3]; above 100 µM in assay [4]; above 100 µM in [6]; above 100 µM in assay [7]. The TGI in assay [8] was 1.67 µM; in assay [9] it was 3.95 µM; in assay [10] it was above 100 µM.

Regarding `COc1cc(C(=O)c2cnc(-c3ccc4cc[nH]c4c3)[nH]2)cc(OC)c1OC`, the GI50 in [1] is 0.0503 µM; in [2], 0.0575 µM; in [4], 0.117 µM; in assay [5] it was 0.0316 µM; in assay [7], 0.0398 µM; in [8], 0.0417 µM. In addition, the GI50 in [9] is 0.0277 µM; in [10], 2.03 µM. For the same compound, the TGI in assay [1] amounted to 4.2 µM; in assay [2] it was 21 µM; in assay [4], 9 µM; in [5] it was 0.108 µM; in assay [6] it was 0.0245 µM; in assay [7], 21.7 µM. In addition, the TGI in [8] came out at 2.77 µM; in [9], 0.105 µM; in assay [10], 17.4 µM.

On to `CN(C)c1ccc2cc3c(cc2c1)Oc1ccccc1N3.[Cl][Zn][Cl]`, for which the GI50 is 2.91 µM in [1]; 4.74 µM in [2]; 18 µM in assay [3]; 1.73 µM in assay [4]; 4.09 µM in [5]; 1.98 µM in [6]. In addition, the GI50 in assay [8] is 3.98 µM; in [10], 3.16 µM. Further, the TGI in assay [1] was 10.3 µM; in assay [2] it was 21.7 µM; in assay [3], 39.7 µM; in assay [4], 4.07 µM; in [5], above 100 µM; in assay [6], 4.19 µM. The results for the TGI in assay [8] and in assay [10] were 31 µM and 9.36 µM, respectively.

Take `O=C(O)C1C2C=CC(O2)C1C(=O)NCc1ccncc1` (stereo not given): the TGI in [1], in assay [3], in assay [4], in assay [5], in assay [6] and in assay [7] was above 100 µM each time. Also, the TGI in [8], in assay [9] and in assay [10] was above 100 µM throughout.

In the case of `O=C(O)CC(S)C(=O)O.[Li+].[Sb]` (stereo not given), the GI50 is above 100 µM in [1]; above 100 µM in [2]; 55.3 µM in assay [3]; above 100 µM in assay [4]; 88.6 µM in assay [5]; above 100 µM in [6]. Also, the results for the GI50 in [7], in [8] and in assay [10] were above 100 µM, 63.3 µM and above 100 µM, respectively. Also, the TGI in assay [1], in assay [2], in assay [3], in [4], in assay [5] and in assay [6] was above 100 µM throughout. Besides, the TGI in [7], in [8] and in [10] was above 100 µM in each case.
